Measured values from BindingDB's records for patent US10981904 (Cancer Research Technology, 2021).

Target: T1, Glutaminase kidney isoform, mitochondrial [63-669] (Homo sapiens, UniProt O94925)
T1 sequence (O94925 whole entry): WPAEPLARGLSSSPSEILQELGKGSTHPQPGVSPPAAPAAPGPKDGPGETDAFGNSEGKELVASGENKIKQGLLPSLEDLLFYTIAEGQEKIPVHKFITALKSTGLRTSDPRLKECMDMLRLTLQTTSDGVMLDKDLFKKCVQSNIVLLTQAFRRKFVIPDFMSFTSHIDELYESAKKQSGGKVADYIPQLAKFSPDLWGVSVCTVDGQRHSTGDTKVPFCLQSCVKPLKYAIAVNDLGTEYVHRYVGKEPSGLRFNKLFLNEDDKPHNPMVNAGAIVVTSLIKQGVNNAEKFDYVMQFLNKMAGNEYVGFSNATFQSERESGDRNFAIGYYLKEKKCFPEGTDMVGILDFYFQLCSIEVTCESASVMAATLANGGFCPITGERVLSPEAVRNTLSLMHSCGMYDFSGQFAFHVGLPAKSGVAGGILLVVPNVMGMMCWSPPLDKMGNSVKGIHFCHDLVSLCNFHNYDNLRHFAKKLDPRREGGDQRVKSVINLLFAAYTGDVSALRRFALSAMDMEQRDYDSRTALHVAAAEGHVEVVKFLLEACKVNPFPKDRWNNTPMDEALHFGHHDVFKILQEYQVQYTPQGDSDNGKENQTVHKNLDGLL
Assay: GLS Enzyme Potency Assay
Protocol: A Glutamate Oxidase/AmplexRed coupled assay was used to measure the ability of compounds to bind to and inhibit the activity of GLS1 in vitro. […] GLS1 was diluted to 2× working concentration and incubated at room temperature to allow the tetrameric/dimeric forms to reach steady state. Assay measurements were performed in buffer comprising 50 mM TRIS pH 7.8, 100 mM NaPO4, pH 7.8, 0.001% v/v Tween20. […] DMSO concentration was maintained at 2% by back filling with DMSO solution. […] 3 μL of 100 mM glutamine diluted in assay buffer was then added and the reaction incubated at room temperature for 60 minutes. […] An artefact version of the assay where the 6His tagged GLS protein and glutamine were replaced with assay buffer was also used to rule out non specific effects on the assay components.

IC50 [nM] | SMILES
192 | COC1CN(c2cc([C@H](OC)C(=O)Nc3nnc(N[C@@H]4CCN(c5cccnn5)C4)s3)ccc2F)C1 [US10981904, Example 7(b)]
1840 | CO[C@H](C(=O)Nc1nnc(N[C@@H]2CCN(c3cccnn3)C2)s1)c1ccccc1C1COC1 [US10981904, Example 25]
